Patent US10928381B2, “In vitro methods of monitoring autophagy in a human cell using a photoconvertable fluorescent protein linked biomarker” (The Regents of the University of Michigan, priority 2018, dated 2021)

System: Dendra2-LC3 HEK cells
Assay: Native (green, GFP) Dendra2-LC3 intensity and puncta, phase I primary screen readout (T15/T0)
Type: cell-based, human
Conditions: for GFP intensity of native Dendra2-LC3: vs DMSO
Source text: Conventional methods for estimating autophagy flux rely upon the assessment of LC3 or other autophagy substrates by Western blotting or immunocytochemistry (Ref. 27; herein incorporated by reference in its entirety); by their very nature, these techniques are static and limited to dead cells. Fluorescence-based methods that use tagged substrates allow visualization of autophagy within living cells, but typically require the overexpression of autophagy target proteins that may disrupt the very process they are intended to measure. To assess autophagy in human cells without compromising or interfering with the pathway, experiments were conducted during development of embodiments herein utilizing CRISPR/Cas9 genome editing (Refs. 29-30; herein incorporated by reference in their entireties) to insert the Dendra2 open reading frame into the MAP1LC3B locus (encoding LC3) of HEK cells (FIG. 2a). A mutated, nickase version of Cas9 (Cas9n) was used that is incapable of making double-stranded DNA breaks, thereby minimizing the risk of non-homologous end joining and unwanted insertions or deletions (Refs. 29, 35; herein incorporated by reference in their entireties). Two separate single guide RNAs (sgRNAs) were designed that recognize sequences just upstream and downstream of the MAP1LC3B start codon, and a homology directed repair (HDR) vector encoding the Dendra2 open reading frame flanked by 400 bp of homologous sequence surrounding the MAP1LC3B start codon (FIG. 2a). Following expression of the sgRNAs, Cas9n and the HDR in HEK cells, colonies were selected based upon green fluorescence and passaged to homogeneity (FIG. 2b). The insertion site was confirmed by DNA sequencing, PCR, and immunocytochemistry using antibodies that recognize LC3. Providing further validation of the insertion, transfection with siRNA directed against the MAP1LC3B locus elicited a significant reduction in Dendra2-LC3 protein levels as measured by western blotting and native GFP fluorescence (FIG. 2c, d). In untreated cells, Dendra2-LC3 fluorescence appears diffuse, as expected (FIG. 3a). […] Second, autophagy induction in these cells is accompanied not only by the formation of puncta, but also by relative decreases in diffuse Dendra2-LC3 fluorescence, as indicated by the model in FIG. 1.
For these studies the potent mTOR inhibitor torin1 (Ref. 36; herein incorporated by reference in its entirety) was selected as a positive control for autophagy induction, and the vacuolar ATPase inhibitor bafilomycin-A1 (Ref. 37; herein incorporated by reference in its entirety) as a positive control for autophagy inhibition. In each case, DMSO served as a vehicle (negative) control. Dendra2-LC3 was photoconverted immediately prior to drug application, and the fluorescence intensity in the green (GFP) and red (RFP) channels was measured at regular intervals for 15 h.
The Z′ value for the effect of torin1 on the normalized GFP intensity, calculated as a ratio of GFP intensity at 15 h to that at 0 h (T15/T0), was 0.63 when the assay was conducted in a 96-well format in our laboratory, and 0.56 when conducted in a 384-well format at the Center for Chemical Genomics (CCG, FIG. 3e), indicative of a robust screening platform (Ref. 38; herein incorporated by reference in its entirety). […] The false negative rate was near zero, ensuring a highly sensitive assay.
The possibility that cell death and toxicity mimics the reduction in GFP intensity that would otherwise denote autophagy induction was also addressed. To avoid confounding from toxicity, the area occupied by cells in each image is calculated using ImageJ software and used as a proxy for cell number; since all wells received the same number of cells, >25% reductions in the area occupied by cells at the end of the experiment indicates toxicity. The formation of Dendra2-LC3 puncta in each condition is scored simultaneously using the ‘analyze particles’ function in ImageJ. […]

SMILES	Effect on torin1-elicited reduction in GFP intensity (co-treatment with torin1)	Formation of Dendra2-LC3 (LC3-positive) puncta (FPZ 0.5 μM, torin1 1 μM)	GFP intensity of native Dendra2-LC3 (FPZ 0.5 μM, torin1 1 μM)	GFP intensity of native Dendra2-LC3 (FPZ 0.5 μM, torin1 1 μM, listed as torin1)	GFP intensity of native Dendra2-LC3 (FPZ 0.5 μM, torin1 1 μM, listed as torin-1)	Rank among autophagy inducers in phase I (Prestwick and Enzo collections)
CO/C1=C\C(C)=C\[C@@H](C)[C@@H](O)[C@@H](C)C/C(C)=C/C=C/[C@H](OC)[C@@H]([C@@H](C)[C@@H](O)[C@H](C)[C@@]2(O)C[C@@H](O)[C@H](C)[C@@H](C(C)C)O2)OC1=O [Bafilomycin-A1, bafilomycin-A1]	fully blocked					
CCC(=O)N1CCN(c2ccc(-n3c(=O)ccc4cnc5ccc(-c6cnc7ccccc7c6)cc5c43)cc2C(F)(F)F)CC1 [Torin1, torin1]		elicits the formation of LC3-positive puncta	return is prevented	highly significant and durable reduction	reduces the steady-state GFP intensity	rank among the most potent inducers
